According to US9487561B2, “Biologically active complex and its preparation” (HAMLET PHARMA AB, priority 2010, dated 2016):
“Also recorded” adds a separate entry of the source.

Assays:
[1] = test system: A549 lung carcinoma cells; experiment: cell death assay (trypan blue exclusion, ATP levels); assay type: cell-based, human; details: SB202190 20 μM or BIRB796 10 μM; HAMLET 3 h
Description: (§1) Cells were detached from cell culture flasks with versen (0.2 g EDTA in 200 ml H2O and 800 ml PBS), washed with PBS and resuspended in serum-free RPMI-1640. HAMLET dissolved in PBS was incubated with cells (0.5×10^6/ml for A549, A498 and HeLa cells; 1×10^6/ml for Jurkat) at 37° C. FCS was added after 1 hour. Cell death was quantified by trypan blue exclusion (Chroma Gesellschaft Schmid & Co) or by measuring ATP levels (ATPlite Kit, PerkinElmer, Infinite 200, Tecan). Light images were captured using the HOLOMONITOR™ M2 digital holographic microscope (Phase Holographic Imaging AB, Lund, Sweden).
(§2) For studies with inhibitors, cells were pretreated for 30 minutes. Inhibitors used were Gadolinium chloride (GdCl3, 100 μM), Barium chloride (BaCl2, 1 mM), Ruthenium red (30 μM), tetrandrine (10 μM) and amiloride (1 mM), all from Sigma Aldrich. For p38 inhibition, SB202190 (20 μM, Sigma Aldrich) or BIRB796 (10 μM, Axon Medchem) dissolved in DMSO was used. The wells were washed twice with PBS and new medium with inhibitor was added. For RNA interference, FlexiTube siRNA Premixes against MAPK11 (SI00606053), MAPK14 (SI00300769) and All Star Negative Control siRNA (SI03650318) from Qiagen was used. A549 forward was transfected using 25 nM final siRNA concentration in 24-well plate. After 48 hours, knockdown was examined by Western blot (anti-p38, 1:1000, Cell Signaling) and RT-PCR (MAPK14, QT00079345, QIAGEN).
(§3) To examine if functional ion channels are important for the tumoricidal activity of HAMLET, A549 lung carcinoma cells in suspension were pretreated with the channel inhibitors for 30 minutes and exposed to increasing concentrations of HAMLET for three hours.
A549 cells were seeded to a density of 0.8-1.0×10^6 cells/well in RPMI without FCS. Different volumes of HAMLET/oleate and oleic acid solutions were added. The cells were incubated for 1 hour at 37° C. 5% CO2 for 1 hour before 50 μl of FCS (5% final concentration) were added to the wells. The cells were then further incubated for additional 2 hours before the viability were determined by trypan blue exclusion and ATP measurements.

[2] = test system: lymphoma cells (Jurkat cells); experiment: cell death assay with inhibitors; assay type: cell-based; details: SB202190 20 μM; HAMLET 7-49 μM, 3 h
Description: GAPDH was used as a loading control.
as §1, §2, §3

[3] = test system: kidney carcinoma (A498) cells; experiment: cell death assay with p38 inhibitors; assay type: cell-based, human; details: SB202190 20 μM or BIRB796 10 μM; HAMLET 3 h
Description: FIG. 4. p38 inhibition rescues carcinoma and lymphoma cells from death and morphological change in response to HAMLET. (A, B) p38 inhibition (SB202190, 20 μM) rescued carcinoma (A549 and A498) and T-cell lymphoma (Jurkat) cells from death in response to HAMLET (7-49 μM, 3 h). Viability was quantified by Trypan blue exclusion (A) or as ATP levels (B). Data are means+SEMs for 3 independent experiments. (C) Real-time images of cell morphology after HAMLET exposure, showing that p38 inhibition prevents morphological changes in carcinoma cells (nuclear condensation, rounding up and blebbing). (D-E) A549 lung carcinoma cells were transfected using siRNA against p38α/MAPK14 and/or p38β/MAPK11 or non-targeting siRNA. Relative MAPK11 and MAPK14 mRNA levels are shown (MAPK/GAPDH, in % of non-transfected cells) as means+SEMs for 4 independent experiments. […] (F) The cytotoxic effect of HAMLET was quantified 48 hours after transfection as reduction in ATP levels. […]
FIG. 12. […] Viability was quantified by ATP levels.
Cells were detached from cell culture flasks with versen (0.2 g EDTA in 200 ml H2O and 800 ml PBS), washed with PBS and resuspended in serum-free RPMI-1640. […] Cell death was quantified by trypan blue exclusion (Chroma Gesellschaft Schmid & Co) or by measuring ATP levels (ATPlite Kit, PerkinElmer, Infinite 200, Tecan). […]

[4] = test system: p38, HSP27, ERK1/2 in kidney and lung carcinoma cells; experiment: MAPK phosphorylation (phospho-MAPK antibody arrays, Western blot); assay type: cell-based, human
Description: Equal volumes of lysates were separated by SDS-PAGE on 4-12% Bis-Tris gels (Invitrogen) and blotted onto PVDF membranes. For other Western blots, 200,000 cells were allowed to adhere overnight in a 6-well plate. After HAMLET treatment the cells were washed with PBS and lysed in M-PER lysis buffer (Pierce) containing Complete protease inhibitor cocktail and PhosSTOP phosphatase inhibitor cocktail (both from Roche). The detached cells were collected by centrifugation. The lysates were cleared by centrifugation and protein concentrations were measured using the DC Protein Assay (Bio-Rad Laboratories, Hercules, Calif.). Equal amounts of protein were separated by SDS-PAGE on 4-12% Bis-Tris gels (Invitrogen) and blotted onto PVDF membranes (GE Healthcare). Membranes were saturated with BSA (GAPDH) or nonfat dry milk (phospho-p38, p38, phospho-ERK1/2, ERK1/2) and incubated with anti-p38, anti-phospho-p38, anti-ERK1/2, anti-phospho-(Thr202/Tyr204)-p44/42 (all 1:500-1000, Cell Signaling Technology), anti-ATF6 (1:1000, IMG-273, Imgenex), anti-phospho-eIF2α (Ser51), (1:500, Cell Signaling Technology) or anti-GAPDH (1:3000-5000, Novus Biologicals) antibodies followed by horseradish peroxidase-conjugated anti-rabbit (1:1000, DakoCytomation, Glostrup, Denmark) or anti-mouse (1:40000-50000, Novus Biologicals) antibodies for staining. Bound antibodies were detected with ECL Plus Western Blotting Reagent (GE Healthcare, Little Chalfont, UK) and GelDoc equipment (Bio-Rad Laboratories, Hercules, Calif.). If required, membranes were stripped with Restore Western Blot Stripping Buffer (Pierce, Rockford, Ill.), blocked and reprobed with new antibodies. MAP kinase phosphorylation was analyzed on a Human Phospho-MAPK array (Proteome Profiler Array, R&D Systems) as per the manufacturer's instruction. Band and spot intensities were quantified using ImageJ (Abramoff et al., July 2004, Biophotonics International). Cytokine quantification (IL6, IL8, TNFα) was performed on an […] 1000 immunoassay system (Siemens Diagnostics).
P38 MAPKs are activated by dual phosphorylation on conserved threonine and tyrosine residues by MKK3/6 and when phosphorylated, a wide variety of effector proteins, including MAPKAPK2 kinases, HSP27 chaperones and ATF2 and CHOP transcription factors become active (Cuenda et al., 2007, Biochimica et Biophysica Acta 1773: 1358-1375).

Oc1ccc(-c2nc(-c3ccncc3)c(-c3ccc(F)cc3)[nH]2)cc1 [SB202190]
effect of p38 inhibitor on death in response to HAMLET [1]: rescued; also recorded: clearly attenuated
effect of p38 inhibitor on death in response to HAMLET [2]: rescued
effect of p38 inhibitor on death in response to HAMLET [3]: rescued
effect of p38 inhibitor on p38 and HSP27 phosphorylation upon HAMLET treatment [4]: marked decrease in p38 and HSP27 phosphorylation
